Publication PMC10988834, “Neq2X7: a multi-purpose and open-source fusion DNA polymerase for advanced DNA engineering and diagnostics PCR” (BMC Biotechnology, 2024)

Molecular target: T1, Neq2X (Nanoarchaeum equitans, UniProt Q74M37+Q74N74, Q74N74:A523R/Q74N74:N540R)
T1 construct: gene NEQ068; double mutant Neq DNA polymerase without Sso7d, N-terminal 6xHis; one polypeptide, E. coli Rosetta2 (DE3) pLysS
Experiment: PCR amplification, agarose gel
Format: biochemical
Conditions: with dATP, dCTP, dGTP, 1 min/kb, extension 72 °C

T1 sequence (Q74M37 entry or part of it): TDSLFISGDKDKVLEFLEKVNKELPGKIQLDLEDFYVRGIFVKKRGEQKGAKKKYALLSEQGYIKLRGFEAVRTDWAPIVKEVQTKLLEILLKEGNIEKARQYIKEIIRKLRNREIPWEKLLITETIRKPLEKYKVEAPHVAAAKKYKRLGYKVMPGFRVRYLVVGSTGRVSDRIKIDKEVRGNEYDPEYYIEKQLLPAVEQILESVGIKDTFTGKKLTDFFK
T1 sequence (Q74N74 entry or part of it A523R/N540R): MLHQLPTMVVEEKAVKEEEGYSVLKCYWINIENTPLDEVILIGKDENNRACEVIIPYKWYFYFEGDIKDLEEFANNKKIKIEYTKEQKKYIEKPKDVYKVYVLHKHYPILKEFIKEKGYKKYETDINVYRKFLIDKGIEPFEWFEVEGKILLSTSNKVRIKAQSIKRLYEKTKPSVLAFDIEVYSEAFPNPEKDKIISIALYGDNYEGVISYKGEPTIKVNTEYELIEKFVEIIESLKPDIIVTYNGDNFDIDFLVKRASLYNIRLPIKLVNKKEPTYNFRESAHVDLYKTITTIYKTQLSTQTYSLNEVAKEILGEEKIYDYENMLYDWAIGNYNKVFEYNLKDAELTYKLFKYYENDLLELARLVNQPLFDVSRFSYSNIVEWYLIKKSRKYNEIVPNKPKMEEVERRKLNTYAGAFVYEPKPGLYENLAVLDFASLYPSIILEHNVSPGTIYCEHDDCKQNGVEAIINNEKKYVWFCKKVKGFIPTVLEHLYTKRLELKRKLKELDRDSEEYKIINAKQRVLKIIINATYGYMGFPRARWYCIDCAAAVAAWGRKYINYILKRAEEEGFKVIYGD

Row | Compound | PCR amplification, agarose gel (3-12 kb amplicons) | PCR amplification, agarose gel (dUTP fully replacing dTTP, 3 kb amplicon)
1 | Cc1cn([C@H]2C[C@H](O)[C@@H](COP(=O)(O)OP(=O)(O)OP(=O)(O)O)O2)c(=O)[nH]c1=O [dTTP] | all three polymerases amplified DNA to a detectable level | 
2 | O=c1ccn([C@H]2C[C@H](O)[C@@H](COP(=O)(O)OP(=O)(O)OP(=O)(O)O)O2)c(=O)[nH]1 [dUTP] |  | all tested polymerases were able to generate a detectable PCR product
